Measurements reported in PubChem BioAssay AID588647 (Sanford-Burnham Center for Chemical Genomics, 2011).
Several values for one entry are separate records, joined by “and”; a condition that tells them apart may be missing. Equal entries are not always repeated. Activity calls are given as the source filed them. The rule behind the calls is not given here.

biological target: intestinal alkaline phosphatase (Mus musculus); experiment: mouse IAP inhibition by analogs – biochemical, luminescence, set 2, SAR follow-up (AID 588647); settings: purified mouse IAP, luminescent substrate read-out

Compound | IC50
O=C(NN=Cc1ccccc1F)c1ccc(O)cc1 | > 100 µM (inactive)
O=C(CCNS(=O)(=O)c1ccc2[nH]c(=O)oc2c1)NCc1cccc(Cl)c1 | > 100 µM (inactive)
O=C(N/N=C/c1ccc(F)cc1F)c1ccc(O)cc1 | > 100 µM (inactive)
Cc1ccc(C)c(CNC(=O)C2CCCN(S(=O)(=O)c3ccc4[nH]c(=O)oc4c3)C2)c1 (stereo not given) | > 100 µM (inactive)
COc1ccc(OC)c(NC(=O)CCNS(=O)(=O)c2ccc3c(c2)oc(=O)n3C)c1 | > 100 µM (inactive)
COc1ccc(NC(=O)CCCNS(=O)(=O)c2ccc3[nH]c(=O)oc3c2)cc1OC | 1.5 µM
COc1cc(C(=O)N/N=C/c2c(F)cccc2Cl)cc(OC)c1OC | > 100 µM (inactive)
O=C(N/N=C/c1cccc(Cl)c1Cl)c1cc(O)c(O)c(O)c1 | 19.9 µM
COc1ccc(CNC(=O)CCNS(=O)(=O)c2ccc3c(c2)CCC3)c(OC)c1 | > 100 µM (inactive)
COc1ccc(/C=N\NC(=O)c2cc(O)c(O)c(O)c2)cc1CN1CCN(c2ccc(F)cc2)CC1 | 27.9 µM
Cc1ccc(C)c(NC(=O)CNS(=O)(=O)c2ccc3[nH]c(=O)oc3c2)c1 | 0.93 µM and 0.54 µM
O=C(CCCNS(=O)(=O)c1ccc2[nH]c(=O)oc2c1)NCCc1ccc(O)cc1 | 4.2 µM
COc1ccc(NC(=O)CCNS(=O)(=O)c2ccc3c(c2)CCC3)cc1OC | > 100 µM (inactive)
O=C(N/N=C/c1cc(Br)ccc1F)c1ccc(O)cc1 | > 100 µM (inactive)
O=C(CCS(=O)(=O)Nc1ccc2[nH]c(=O)oc2c1)NCc1cccc(Cl)c1 | 67 µM
COc1ccc(CCNC(=O)CCCNS(=O)(=O)c2ccc3[nH]c(=O)oc3c2)cc1 | 7.4 µM
O=C(CCNS(=O)(=O)c1ccc2[nH]c(=O)oc2c1)NCc1ccc(C(F)(F)F)cc1 | > 100 µM (inactive)
COc1ccc(CNC(=O)C2CCCN(S(=O)(=O)c3ccc4[nH]c(=O)oc4c3)C2)cc1 (stereo not given) | > 100 µM (inactive)
COc1ccc(CNC(=O)CCNS(=O)(=O)c2ccc3[nH]c(=O)oc3c2)cc1 | 3 µM and 2.3 µM
COc1ccc(CNC(=O)CNS(=O)(=O)c2ccc3[nH]c(=O)oc3c2)cc1 | 0.89 µM and 2.1 µM and 2.5 µM

Compound | IC50
Cc1ccc(C)c(NC(=O)CCNS(=O)(=O)c2ccc3c(c2)CCC3)c1 | > 100 µM (inactive)
Cc1ccc(C)c(NS(=O)(=O)c2ccc3[nH]c(=O)oc3c2)c1 | > 100 µM (inactive)
O=c1[nH]c2ccc(S(=O)(=O)NCc3ccc4c(c3)OCO4)cc2o1 | > 100 µM (inactive)
COc1cccc(C(=O)N/N=C/c2ccccc2F)c1 | > 100 µM (inactive)
N#Cc1cccc(NS(=O)(=O)c2ccc3[nH]c(=O)oc3c2)c1 | > 100 µM (inactive)
CC(C)c1ccc(NC(=O)C2CCCN(S(=O)(=O)c3ccc4c(c3)oc(=O)n4C)C2)cc1 (stereo not given) | > 100 µM (inactive)
O=C(N/N=C/c1ccccc1C(F)(F)F)c1cc(O)c(O)c(O)c1 | 8.46 µM
Cc1ccc(C)c(NC(=O)C2CCCN(S(=O)(=O)c3ccc4c(c3)oc(=O)n4C)C2)c1 (stereo not given) | > 100 µM (inactive)
COc1cccc(NC(=O)CCNS(=O)(=O)c2ccc3c(c2)oc(=O)n3C)c1 | > 100 µM (inactive)
Cc1ccc(CNC(=O)CCNS(=O)(=O)c2ccc3[nH]c(=O)oc3c2)cc1 | 89 µM
O=C(CCS(=O)(=O)Nc1ccc2[nH]c(=O)oc2c1)NCc1cccc(F)c1 | 66 µM
COc1cccc(CNC(=O)CCNS(=O)(=O)c2ccc3[nH]c(=O)oc3c2)c1 | 0.82 µM and 34 µM and > 100 µM (inactive)
O=C(CCNS(=O)(=O)c1ccc2[nH]c(=O)oc2c1)NCc1ccc(F)cc1 | > 100 µM (inactive)
CCc1ccc(NC(=O)CCNS(=O)(=O)c2ccc3c(c2)oc(=O)n3C)cc1 | > 100 µM (inactive)
CC(C)Oc1ccc(CNC(=O)C2CCCN(S(=O)(=O)c3ccc4[nH]c(=O)oc4c3)C2)cc1 (stereo not given) | > 100 µM (inactive)
O=C(NCc1ccc(F)cc1)C1CCCN(S(=O)(=O)c2ccc3[nH]c(=O)oc3c2)C1 (stereo not given) | > 100 µM (inactive)
O=C(NCc1ccc2c(c1)OCO2)C1CCCN(S(=O)(=O)c2ccc3[nH]c(=O)oc3c2)C1 (stereo not given) | > 100 µM (inactive)
O=C(CCNS(=O)(=O)c1ccc2[nH]c(=O)oc2c1)NCCc1ccc(O)cc1 | > 100 µM (inactive)
O=c1[nH]c2ccc(S(=O)(=O)NCCc3ccc4c(c3)OCO4)cc2o1 | > 100 µM (inactive)
O=C(N/N=C/c1ccccc1Cl)c1cc(O)c(O)c(O)c1 | 7.49 µM

Compound | IC50
CSc1cccc(NC(=O)C2CCCN(S(=O)(=O)c3ccc4c(c3)oc(=O)n4C)C2)c1 (stereo not given) | > 100 µM (inactive)
O=C(NCc1ccccc1)C1CCCN(S(=O)(=O)c2ccc3[nH]c(=O)oc3c2)C1 (stereo not given) | > 100 µM (inactive)
O=C(CCNS(=O)(=O)c1ccc2[nH]c(=O)oc2c1)NCc1ccccc1Cl | > 100 µM (inactive)
N#Cc1ccc(NC(=O)CNS(=O)(=O)c2ccc3[nH]c(=O)oc3c2)cc1 | 1.6 µM and 4.7 µM
CSc1cccc(NC(=O)CCNS(=O)(=O)c2ccc3c(c2)oc(=O)n3C)c1 | > 100 µM (inactive)
O=C(N/N=C/c1ccccc1F)c1ccc(O)cc1 | > 100 µM (inactive)
O=C(CCS(=O)(=O)Nc1ccc2[nH]c(=O)oc2c1)NCc1ccccc1Cl | 86 µM
O=C(CCCNS(=O)(=O)c1ccc2[nH]c(=O)oc2c1)NCc1ccccc1Cl | 1.6 µM and > 100 µM (inactive)
Cc1ccccc1CNC(=O)CCCNS(=O)(=O)c1ccc2[nH]c(=O)oc2c1 | > 100 µM (inactive)
CCOc1cc(C(=O)N/N=C/c2c(F)cccc2Cl)cc(OCC)c1OCC | > 100 µM (inactive)
COc1ccccc1CNC(=O)CCNS(=O)(=O)c1ccc2[nH]c(=O)oc2c1 | > 100 µM (inactive)
COc1cccc(/C=N/NC(=O)c2cc(O)c(O)c(O)c2)c1O | 4.01 µM
O=C(N/N=C/c1c(F)cccc1Cl)c1ccc(O)cc1O | > 100 µM (inactive)
Cc1ccc(NC(=O)CCNS(=O)(=O)c2ccc3c(c2)oc(=O)n3C)cc1C | > 100 µM (inactive)
O=C(CCNS(=O)(=O)c1ccc2[nH]c(=O)oc2c1)NCc1cccc(C(F)(F)F)c1 | 70 µM
O=C(CCNS(=O)(=O)c1ccc2[nH]c(=O)oc2c1)NCc1ccccc1F | > 100 µM (inactive)
O=C(N/N=C/c1ccc(F)c(Br)c1)c1cc(O)c(O)c(O)c1 | 8.37 µM
C/C(=N\NC(=O)c1cc(O)c(O)c(O)c1)c1ccc(O)cc1O | 0.777 µM
COc1ccc(CNS(=O)(=O)c2ccc3[nH]c(=O)oc3c2)c(OC)c1 | 89 µM

Next, values leading:

IC50 | Compound
> 100 µM (inactive) | O=C(CNS(=O)(=O)c1ccc2[nH]c(=O)oc2c1)NCCc1ccc2c(c1)OCO2
8.41 µM | COc1ccc(/C=N/NC(=O)c2cc(O)c(O)c(O)c2)c(OC)c1
> 100 µM (inactive) | Cc1ccc(NC(=O)CCNS(=O)(=O)c2ccc3c(c2)oc(=O)n3C)c(C)c1
> 100 µM (inactive) | CCc1ccc(NC(=O)C2CCCN(S(=O)(=O)c3ccc4c(c3)oc(=O)n4C)C2)cc1 (stereo not given)
> 100 µM (inactive) | CN(C)c1ccc(CNC(=O)C2CCCN(S(=O)(=O)c3ccc4[nH]c(=O)oc4c3)C2)cc1 (stereo not given)
> 100 µM (inactive) | CCOc1ccc(CNC(=O)C2CCCN(S(=O)(=O)c3ccc4[nH]c(=O)oc4c3)C2)cc1OC (stereo not given)
1.8 µM and 0.73 µM | COc1cccc(CNC(=O)CNS(=O)(=O)c2ccc3[nH]c(=O)oc3c2)c1
> 100 µM (inactive) | O=C(N/N=C/c1ccc(Br)cc1F)c1cc(O)ccc1O
12 µM | O=C(CCNS(=O)(=O)c1ccc2[nH]c(=O)oc2c1)Nc1ccc2c(c1)OCO2
84 µM | Cc1ccc(NC(=O)CCNS(=O)(=O)c2ccc3[nH]c(=O)oc3c2)cc1C
> 100 µM (inactive) | N#Cc1ccc(NS(=O)(=O)c2ccc3[nH]c(=O)oc3c2)cc1
> 100 µM (inactive) | COc1ccc(C(=O)N/N=C/c2ccccc2F)cc1
> 100 µM (inactive) | COc1ccc(CNC(=O)CCNS(=O)(=O)c2ccc3ccccc3c2)c(OC)c1
> 100 µM (inactive) | CC(C)(C)c1ccc(/C=N/NC(=O)c2cc(O)c(O)c(O)c2)cc1
> 100 µM (inactive) | O=C(N/N=C/c1ccccc1F)c1ccccc1OCc1ccccc1
6.3 µM | COc1ccc(NC(=O)CCCNS(=O)(=O)c2ccc3[nH]c(=O)oc3c2)c(OC)c1
99 µM | Cc1ccc(NC(=O)CCNS(=O)(=O)c2ccc3c(c2)oc(=O)n3C)cc1
98 µM | COc1ccc(CNS(=O)(=O)c2ccc3[nH]c(=O)oc3c2)cc1

IC50 | Compound
> 100 µM (inactive) | COc1ccc(NC(=O)CCNS(=O)(=O)c2ccc3ccccc3c2)cc1OC
> 100 µM (inactive) | O=C(N/N=C/c1c(F)cccc1Cl)c1ccc(O)cc1
1.4 µM and > 100 µM (inactive) | N#Cc1cccc(NC(=O)CNS(=O)(=O)c2ccc3[nH]c(=O)oc3c2)c1
3.87 µM | COc1cc(/C=N/NC(=O)c2cc(O)c(O)c(O)c2)ccc1O
> 100 µM (inactive) | COc1ccc(/C=N/NC(=O)c2cc(O)c(O)c(O)c2)cc1OC
> 100 µM (inactive) | O=C(CCNS(=O)(=O)c1ccc2ccccc2c1)NCCc1ccc2c(c1)OCO2
> 100 µM (inactive) | COc1ccc(CNC(=O)CNS(=O)(=O)c2ccc3[nH]c(=O)oc3c2)c(OC)c1
> 100 µM (inactive) | Cc1ccc(CNC(=O)C2CCCN(S(=O)(=O)c3ccc4[nH]c(=O)oc4c3)C2)cc1 (stereo not given)
> 100 µM (inactive) | O=c1[nH]c2ccc(S(=O)(=O)Nc3ccc4c(c3)OCO4)cc2o1
> 100 µM (inactive) | COc1ccc(C(=O)N/N=C/c2c(F)cccc2Cl)cc1OC
94 µM | Cc1cc(NC(=O)CCNS(=O)(=O)c2ccc3[nH]c(=O)oc3c2)ccc1Br
57.5 µM | CC(C)c1ccc(/C=N/NC(=O)c2cc(O)c(O)c(O)c2)cc1
0.53 µM and 0.54 µM | COc1ccc(NC(=O)CCNS(=O)(=O)c2ccc3[nH]c(=O)oc3c2)cc1OC
78 µM | Cc1ccc(C)c(NC(=O)CCNS(=O)(=O)c2ccc3ccccc3c2)c1
88 µM | O=C(CCNS(=O)(=O)c1ccc2[nH]c(=O)oc2c1)NCc1ccc(Cl)cc1
78 µM | COc1ccc(CNC(=O)CCCNS(=O)(=O)c2ccc3[nH]c(=O)oc3c2)cc1OC
45 µM | O=C(CCCNS(=O)(=O)c1ccc2[nH]c(=O)oc2c1)NCc1ccc2c(c1)OCO2
> 100 µM (inactive) | COc1ccc(OC)c(NC(=O)C2CCCN(S(=O)(=O)c3ccc4c(c3)oc(=O)n4C)C2)c1 (stereo not given)
